For one series, the system named is HepG2. The series is described as follows: Cytotoxicity against human HepG2 cells by MTT assay. Type of series: cell-based.
The test system of another series is SW1990. The series is described as follows: Cytotoxicity against human SW1990 cells by MTT assay. Type of series: cell-based. (In general: Tetrazolium assays rely on reduction of a dye to a coloured formazan, in cell work by metabolically active cells.)
Series [1] has as its system RAW264.7. The series is described as follows: Antiinflammatory activity in mouse RAW264.7 cells assessed as increase of LPS-induced IL-3 production at 5 to 10 uM pretreated for 2 hrs followed by LPS challenge and measured after 12 hrs by ELISA. Type of series: functional, cell-based. (In general: In an ELISA, binding on a coated surface is turned into a signal by an enzyme label.)

The test system of series [2] is RAW264.7. As to the kind of experiment: Antiinflammatory activity in mouse RAW264.7 cells assessed as inhibition of LPS-induced RANTES production at 5 to 10 uM pretreated for 2 hrs followed by LPS challenge and measured after 12 hrs by ELISA. Type of series: functional, cell-based.
In a further series the test system is A549. The series is described as follows: Cytotoxicity against human A549 cells by MTT assay. In kind it is cell-based.
Series [3] concerns RAW264.7. The series is described as follows: Cytotoxicity against mouse RAW264.7 cells at 40 uM by MTT assay. Type of series: cell-based. To be noted: raw264.7, 40 µM.
The test system of series [4] is RAW264.7. As to the kind of experiment: Antiinflammatory activity in mouse RAW264.7 cells assessed as inhibition of LPS-induced nitric oxide production pretreated for 2 hrs followed by LPS challenge and measured after 12 hrs by Griess assay. Type of series: functional, cell-based. Background: Griess reagent forms a coloured azo dye with nitrite.
Series [5] has as its system RAW264.7. As to the kind of experiment: Antiinflammatory activity in mouse RAW264.7 cells assessed as inhibition of LPS-induced MIP-1beta production at 5 to 10 uM pretreated for 2 hrs followed by LPS challenge and measured after 12 hrs by ELISA. In kind it is functional, cell-based.
Series [6] has as its target Transcription factor p65 (Mus musculus) (UniProt Q04207). The series is described as follows: Inhibition of LPS-induced NF-kappaB p65 translocation in mouse RAW264.7 cells at 5 to 10 uM pretreated for 2 hrs followed by LPS challenge measured after 12 hrs by DAPI staining based fluorescence microscopic analysis. In kind it is cell-based.
Series [7] has as its system RAW264.7. As to the kind of experiment: Antiinflammatory activity in mouse RAW264.7 cells assessed as inhibition of LPS-induced TNFalpha production at 5 to 10 uM pretreated for 2 hrs followed by LPS challenge and measured after 12 hrs by ELISA. Type of series: functional, cell-based.
The subject of series [8] is RAW264.7. The series is described as follows: Antiinflammatory activity in mouse RAW264.7 cells assessed as increase in LPS-induced HO-1 protein level pretreated for 2 hrs followed by LPS challenge and measured after 12 hrs by Western blot analysis. In kind it is functional, cell-based.
The target of series [9] is T1, 3-hydroxy-3-methylglutaryl-coenzyme A reductase (Homo sapiens, UniProt P04035).
T1 sequence (P04035 whole entry): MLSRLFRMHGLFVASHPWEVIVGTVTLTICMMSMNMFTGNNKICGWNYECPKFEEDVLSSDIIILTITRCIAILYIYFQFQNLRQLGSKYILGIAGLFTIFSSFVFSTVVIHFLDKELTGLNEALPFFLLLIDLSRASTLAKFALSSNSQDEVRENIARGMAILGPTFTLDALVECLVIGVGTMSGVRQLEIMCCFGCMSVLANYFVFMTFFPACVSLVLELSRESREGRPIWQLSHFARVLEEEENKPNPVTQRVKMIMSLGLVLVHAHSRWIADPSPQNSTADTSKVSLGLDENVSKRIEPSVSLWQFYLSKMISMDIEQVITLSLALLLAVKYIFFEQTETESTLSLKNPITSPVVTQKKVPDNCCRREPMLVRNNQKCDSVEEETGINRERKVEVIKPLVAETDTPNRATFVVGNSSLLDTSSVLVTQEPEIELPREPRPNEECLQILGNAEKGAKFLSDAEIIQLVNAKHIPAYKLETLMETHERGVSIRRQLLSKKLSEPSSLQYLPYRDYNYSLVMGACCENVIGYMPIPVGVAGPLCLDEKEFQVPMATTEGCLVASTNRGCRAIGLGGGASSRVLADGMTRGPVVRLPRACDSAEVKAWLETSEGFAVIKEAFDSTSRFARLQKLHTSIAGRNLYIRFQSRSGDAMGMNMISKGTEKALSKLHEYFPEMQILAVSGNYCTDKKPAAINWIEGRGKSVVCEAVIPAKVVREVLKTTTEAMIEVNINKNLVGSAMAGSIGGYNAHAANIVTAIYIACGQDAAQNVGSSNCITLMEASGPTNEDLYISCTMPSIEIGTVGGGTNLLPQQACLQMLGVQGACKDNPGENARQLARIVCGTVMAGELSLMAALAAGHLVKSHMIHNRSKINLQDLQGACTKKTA
As to the kind of experiment: Inhibition of human HMGR using HMGCoA as substrate measured after 15 mins in presence of NADPH by UV microplate reader analysis.

In another series the test system is MDA-MB-231. The series is described as follows: Cytotoxicity against human MDA-MB-231 cells by MTT assay. Type of series: cell-based.
Series [10] deals with RAW264.7. The series is described as follows: Antiinflammatory activity in mouse RAW264.7 cells assessed as inhibition of LPS-induced IL-1beta production at 5 to 10 uM pretreated for 2 hrs followed by LPS challenge and measured after 12 hrs by ELISA. In kind it is functional, cell-based.

pIC50: −log10 of the molar value. Calls of active or inactive are those of the source. No cut-off for these calls is given here.

Transcription factor p65 (Mus musculus), sequence (Q04207 whole entry): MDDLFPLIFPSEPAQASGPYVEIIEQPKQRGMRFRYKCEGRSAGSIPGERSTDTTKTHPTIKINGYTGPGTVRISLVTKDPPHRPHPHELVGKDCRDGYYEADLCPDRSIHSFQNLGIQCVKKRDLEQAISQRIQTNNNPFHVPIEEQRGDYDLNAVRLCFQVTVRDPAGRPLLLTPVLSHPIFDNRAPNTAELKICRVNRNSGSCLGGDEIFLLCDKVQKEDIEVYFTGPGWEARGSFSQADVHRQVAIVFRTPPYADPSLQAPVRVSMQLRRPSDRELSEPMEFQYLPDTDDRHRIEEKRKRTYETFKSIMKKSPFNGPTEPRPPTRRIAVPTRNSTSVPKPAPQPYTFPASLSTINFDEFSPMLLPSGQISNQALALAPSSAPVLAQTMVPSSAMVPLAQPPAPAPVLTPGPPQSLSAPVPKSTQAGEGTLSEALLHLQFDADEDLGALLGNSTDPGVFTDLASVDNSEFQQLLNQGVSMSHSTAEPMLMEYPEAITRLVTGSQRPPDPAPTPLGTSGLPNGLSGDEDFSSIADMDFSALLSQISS

The term pIC50 denotes the IC50 on a negative log10 scale, so that one unit is a factor of ten. For the compound `CC(C)=C[C@H]1C[C@H](C)[C@]2(CC[C@]3(C)C[C@@H]4C(C)=CC(=O)[C@H]4/C(C=O)=C\C[C@H]32)O1` [3-ANHYDRO-6-EPI-OPHIOBOLIN A], the pIC50 in the series on HepG2 was under 4.40; in the series on SW1990, under 4.40; in the series on A549, under 4.40; in the series with RAW264.7 [4], 5.29; in [9], 5.08; in the series with MDA-MB-231 it was under 4.40. Moreover, in the series on RAW264.7 [1], the result was Active. Besides, the inhibition entry (in the series with RAW264.7 [2]; with RAW264.7 [5]; in series [6]; in the series on RAW264.7 [7]; in the series with RAW264.7 [10]) was “Active” throughout. For the same compound, the Activity result with RAW264.7 [3] is “Non-Toxic”; with RAW264.7 [8], “Dose-dependent effect”.

As to `CC(C)=C[C@H]1C[C@H](C)[C@]2(CC[C@]3(C)C[C@@H]4C(CO)=CC(=O)[C@H]4/C(C)=C\C[C@H]32)O1`, the negative logarithm of the IC50 (pIC50) in the series on HepG2, in the series on SW1990, in the series on A549, in the series with RAW264.7 [4] and in the series with MDA-MB-231 was under 4.40 throughout. Further, in the series with RAW264.7 [3], the Activity entry is “Non-Toxic”.

`CC1=CC(=O)[C@H]2/C(C)=C\C[C@@H]3[C@](C)(CC[C@@]34O[C@@H](/C=C(\C)CO)C[C@@H]4C)C[C@H]12`: the pIC50 in the series with HepG2, with SW1990, in the series with A549, in the series on RAW264.7 [4] and with MDA-MB-231 was under 4.40 each time. The Activity entry in the series on RAW264.7 [3] is recorded as “Non-Toxic”.

`CC(C)=C[C@H]1C[C@H](C)[C@]2(CC[C@]3(C)C[C@@H]4C(C)=CC(=O)[C@H]4/C(C(=O)O)=C\C[C@H]32)O1`: the pIC50 with HepG2, with SW1990, in the series on A549, in the series with RAW264.7 [4] and in the series on MDA-MB-231 was under 4.40 throughout. Moreover, the Activity entry in the series with RAW264.7 [3] is on record as “Non-Toxic”.

In the case of `CC1=CC(=O)/C2=C(\CO)[C@H](O)C[C@@H]3[C@](C)(CC[C@@]34O[C@@H](/C=C(\C)CO)C[C@@H]4C)C[C@H]12`, the pIC50 in the series with HepG2, with SW1990, with A549, with RAW264.7 [4] and with MDA-MB-231 was under 4.40 in each case. The Activity entry with RAW264.7 [3] is on record as “Non-Toxic”.

With `CC1=CC(=O)/C2=C(\CO)[C@@H](O)C[C@@H]3[C@](C)(CC[C@@]34O[C@@H](/C=C(\C)CO)C[C@@H]4C)C[C@H]12`, the pIC50 is under 4.40 in the series with HepG2; under 4.40 in the series with SW1990; under 4.40 with A549; 4.72 with RAW264.7 [4]; under 4.40 in the series with MDA-MB-231. For the same compound, the Activity result in the series on RAW264.7 [3] is on record as “Non-Toxic”.

As for `CC1=CC(=O)/C2=C(\CO)CC[C@@H]3[C@](C)(CC[C@@]34O[C@@H](/C=C(\C)CO)C[C@@H]4C)C[C@H]12`, the pIC50 with HepG2, in the series on SW1990, in the series with A549, in the series on RAW264.7 [4] and in the series on MDA-MB-231 was under 4.40 throughout. In addition, the Activity result in the series with RAW264.7 [3] is recorded as “Non-Toxic”.

For the compound `CC(C)=C[C@H]1C[C@H](C)[C@]2(CC[C@]3(C)C[C@@H]4C(C)=CC(=O)/C4=C(\CO)[C@@H](O)C[C@H]32)O1`, the pIC50 with HepG2 was under 4.40; in the series on SW1990 it was under 4.40; with A549 it was under 4.40; with RAW264.7 [4], 5.17; with MDA-MB-231, under 4.40. In the series with RAW264.7 [3], the Activity entry is reported as “Non-Toxic”.

On to `CC(C)=C[C@H]1C[C@H](C)[C@]2(CC[C@]3(C)C[C@H]4[C@H](CC[C@@]4(C)O)/C(CO)=C\C[C@H]32)O1`, for which the negative logarithm of the IC50 (pIC50) with HepG2, in the series with SW1990, in the series on A549, with RAW264.7 [4] and with MDA-MB-231 was under 4.40 throughout. The Activity result with RAW264.7 [3] is “Non-Toxic”.

As for `COc1ccc2c(c1)c(CC(=O)O)c(C)n2C(=O)c1ccc(Cl)cc1` [INDOMETHACIN], the negative-log IC50 (pIC50) in the series on RAW264.7 [4] is 5.06.

Turning to `CC(C)=C[C@H]1C[C@H](C)[C@]2(CC[C@]3(C)C[C@@H]4C(C)=CC(=O)/C4=C(\CO)[C@H](O)C[C@H]32)O1`, the pIC50 was under 4.40 in the series with HepG2; under 4.40 with SW1990; under 4.40 with A549; 4.70 in the series with RAW264.7 [4]; under 4.40 with MDA-MB-231. Moreover, in the series on RAW264.7 [3], the Activity result is given as “Non-Toxic”.

Turning to `CC1=CC(=O)[C@H]2/C(C=O)=C\C[C@@H]3[C@](C)(CC[C@@]34O[C@@H](/C=C(\C)CO)C[C@@H]4C)C[C@H]12`, the pIC50 in the series on HepG2 is under 4.40; in the series with SW1990, under 4.40; in the series on A549, under 4.40; in the series on RAW264.7 [4], 4.72; in the series on MDA-MB-231, under 4.40. The Activity entry in the series on RAW264.7 [3] was “Non-Toxic”.

With `CC(C)=C[C@H]1C[C@H](C)[C@]2(CC[C@]3(C)C[C@@H]4C(C)=CC(=O)/C4=C(\C(=O)O)[C@@H](O)C[C@H]32)O1`, the pIC50 in the series on HepG2, in the series on SW1990, in the series with A549, with RAW264.7 [4] and in the series with MDA-MB-231 was under 4.40 throughout. Also, the Activity entry in the series with RAW264.7 [3] is recorded as “Non-Toxic”.

Source of the values: ChEMBL document CHEMBL4414602, “Bipolaricins A-I, Ophiobolin-Type Tetracyclic Sesterterpenes from a Phytopathogenic Bipolaris sp. Fungus” (J Nat Prod, 2019).
